Results taken from patent publication US6465476B1, “Immuno-modulator exhibiting antimicrobial and anti-mycrobacterial activities, method for producing the same and pharmaceutical preparation” (priority 1997, dated 2002).

Experiments:
[1] = system: antibody-forming cells (AFC) in the spleens; test: Antibody-forming cells in the spleen, immunodeficiency caused by irradiation (Jeme-Nordin's procedure); format: in vivo, mice F1 (CBA×C57BL/6); settings: irradiated mice 4 Gy
Protocol: Determination of immunotropic activity of isophonum was carried out. Immunotropic activity of isophonum was determined on a model of immunodeficiency caused by irradiation. To create an immunodeficient state the mice F1 (CBA×C57BL/6) were irradiated with gamma-rays on a radioterapeutic apparatus in a dose of 4 Gy (Gy is the irradiation unit gray) at an irradiation dose power of 0.55 Gr/min. The number of antibody-forming cells (AFC) in the spleens was calculated by Jeme-Nordin's procedure. Isophonum and diuciphonum were introduced per os over a wide range of doses. The investigation results are represented in Table 1.

[2] = system: leprosy mycobacteria; test: Example 3, patient I., lepromatose-typed leprosy, combination treatment; format: in vivo, human
Protocol: They had been ill for 8 years. BIN=66.8-10.8-5.5 where BIN means bacteriological index. […] HI=5,4 where HI means histological index. The patient was ordered the following treatment: 200 mg of isophonum internally twice a day, 200 mg of diuciphonum i.m. and 100 mg dimocifon internally twice a day.
After 8 months of treatment the agent of leprosy vanished in the scrape of nasal mucosa, BIN was 8.3-14.2-4.2, the immunologic parameters normalized. Atfer a year of treatment many of the infiltrates resolved and the other sharply diminished in size and became soft and elastic with their colour changed from rust-brown to cyanotic. BIN became 5.7-4.8-5.3.
There came lymphocytes in moderate numbers. […] The patient continues to undergo treatment.

[3] = system: pulmonary tuberculosis; test: Clinical study on patients with pulmonary tuberculosis; format: in vivo, human; settings: for B-lymphocytes / T-helpers / T-lymphocytes / T-suppressors / Th/Ts: pulmonary tuberculosis patients
From the text: The preparation of the present invention was also studied clinically on tuberculous patients. The age of the patients was under 30 years (6 persons) and under 35 years (2 persons).
The clincal forms of pulmonary tuberculosis in the patients tested were as follows:
infiltrative tuberculosis without cavities of decay and bacterioexcretion—2 persons;
infiltrative tuberculosis with decay and bacterioexcretion—4 persons;
disseminated pulmonary tuberculosis—2 people.
The length of preparation intake was 1 to 2 months. The dose was equal to 0.6 g a day.
The control group consisting of 5 persons with infiltrative pulmonary tuberculosis received conventional treatment including isoniazide. The tolerance for the preparation claimed was good. […] There was no change in functional indices of parenchymatous organs (liver, kidneys, pancreas). In 3 persons hospitalized with symptoms of intoxication the improvement of general physical and mental state was noted including normatization of body temperature, abatement of cough, decrease in amount of sputum excretion, improvement of appetite.

[4] = system: chlamydious infection, PCND; test: Double blind clinical test, chlamydiosis and pulmonary chronic nonspecific diseases; format: in vivo, human
Protocol: The investigation was carried out randomizedly by a “double blind method” on 45 patients aged 25 to 49 years.
The group I consisting of 15 patients (10 persons with pulmonary chronic nonspecific diseases (PCND), 6 of them having chronic catarrhal obstructive bronchitis and 4 having chronic catarrhal nonobstructive bronchitis; 4 persons with chlamydious infection and one person with ureaplasmic infection) received the preparation claimed as monotherapy in a daily dose of 200 mg during 30 days. The group II consisting of 15 patients (8 persons with chlamydious infection, 7 persons with PCND, 5 of them having chronic catarrhal bronchitis, 2 having bronchiectatic disease) received the preparation of the present invention as monotherapy in a daily dose of 400 mg during 30 days. The group III consisting of 15 patients (13 persons with PCND, 7 of them having chronic catarrhal nonobstructive bronchitis and 6 having chronic catarrhal obstructive bronchitis; 2 persons with chlamydious infection) received a placebo.

[5] = Example 2, patient D., bronchiectatic disease; format: in vivo, human; settings: daily dose 400 mg
Protocol: The patient was admitted to a clinic with a diagnosis “bronchiectatic disease”. Concomitant diseases were chronic tonsillitis, diffuse enlargement of thyroid approximately of the first or the second degree.
According to the protocol of clinical tests the patient was ordered the intake of isophonum for the periode of 30 days in a daily dose of 400 mg. On the 14th or 15th day of intake of the preparation the morning sputum discharge considerably diminished in quantity and changed in character from pussy to mucous, the cough ceased and the patient's general state of health and mood improved.

[6] = Solubility; format: physicochemical
Protocol: It is soluble in dimethylformamide, dimethylsulfoxide, deluted acids and alkalies; f. p.=255-256° C. The structure of matter is confirmed by the data of PMR-spectroskopy.

[7] = Storage stability; format: physicochemical
From the text: More precisely, isophonum is produced by boiling equimolecular amounts of isonicotinic acid hydrazide and 6-methyluracyl-5-sulfochloride in anhydrous acetonitrile. The samples of isophonum maintain their properties during the period of time of 3 years.

[8] = after a year, combination with diuciphonum and dimocifon
[9] = after three months, 0.6 g a day
[10] = tuberculous patients, 0.6 g a day, 1 to 2 months

Cc1[nH]c(=O)[nH]c(=O)c1S(=O)(=O)NNC(=O)c1ccncc1.O [Isophonum, N-(6-methyl-2,4-dioxo-1,2,3,4-tetrahydro-5-pyrimidinsulfon)-N′-isonicotinoylhydrazide hydrate]
AFC-number in the spleen ([1]; 10 μg per mouse per os): 1013 ± 126 | Immune response stimulation index ([1]; 10 μg per mouse per os): 3.63 ± 0.57 | AFC-number in the spleen ([1]; 100 μg per mouse per os): 1173 ± 125 | Immune response stimulation index ([1]; 100 μg per mouse per os): 4.28 ± 0.8 | AFC-number in the spleen ([1]; 1000 μg per mouse per os): 1216 ± 124 | Immune response stimulation index ([1]; 1000 μg per mouse per os): 4.46 ± 0.9 | HI (histological index) [2, 8]: 4.8 | amount of B-lymphocytes [2, 8]: 12% | amount of T-helpers [2, 8]: 66% | amount of T-lymphocytes [2, 8]: 85% | immunoregilatory index [2, 8]: 3.4 | total number of lymphocytes [2, 8]: 51% | HI (histological index) ([2]; patient I., on hospitalization): 5,4 | B-lymphocytes ([3]; after one month, 0.6 g a day): 12.0 ± 0.8 | T-helpers ([3]; after one month, 0.6 g a day): 37.4 ± 0.3 | T-lymphocytes ([3]; after one month, 0.6 g a day): 48.5 ± 1.0 | T-suppressors ([3]; after one month, 0.6 g a day): 20.0 ± 0.6 | Th/Ts ([3]; after one month, 0.6 g a day): 1.85 ± 0.2 | B-lymphocytes [3, 9]: 11.0 ± 0.6 | T-helpers [3, 9]: 55.5 ± 2.0 | T-lymphocytes [3, 9]: 54.8 ± 0.7 | Th/Ts [3, 9]: 2.75 ± 0.04 | B-lymphocytes ([3]; before treatment): 9.0 ± 0.3 | T-helpers ([3]; before treatment): 28.6 ± 0.2 | T-lymphocytes ([3]; before treatment): 42.2 ± 0.1 | T-suppressors ([3]; before treatment): 28.0 ± 1.2 | Th/Ts ([3]; before treatment): 1.0 ± 0.02 | signs of toxication [3, 10]: No one of the patients exhibeted clinical, hematological signs of toxicaction | tolerance for the preparation [3, 10]: good | side effects ([4]; dose of 200 mg and dose of 400 mg): does not have any side effects | number of patients with improvement of clinico-immunologic indices ([4]; group I, 15 patients, 200 mg per day, 30 days): 14 people | number of patients with improvement of clinico-immunologic parameters ([4]; group II, 15 patients, 400 mg daily, 30 days): 14 persons | signs of individual intolerance ([4]; one patient of group I, 200 mg per day, 3rd day of intake): nausea and vomiting | day of considerable improvement of clinical status and general blood analysis [5]: 20 days | day of considerable improvement of immune status parameters [5]: 31 days | solubility in dimethylformamide, dimethylsulfoxide, deluted acids and alkalies [6]: soluble | solubility in water or usual organic solvents [6]: difficult to dissolve | period of time during which samples maintain their properties [7]: 3 years
